The numbers were not newly measured in US7906649B2, “Aminocyclohexanes as dipeptidyl peptidase-IV inhibitors for the treatment of diabetes” (Merck Sharp & Dohme Corp., priority 2005, dated 2011), which cites them from elsewhere.

In series [1] the test system is cardiac allograft survival. The note with it: rats; survival doubled from day 7.
For the next series, the system named is hematopoiesis. Particulars: mouse, cyclophosphamide-induced neutropenia.
Series [2] concerns GRF degradation in plasma.

`CC(C)N1CCC(c2ccccc2)(c2ccccc2)CC1` [Prodipine, Pro-Pro-diphenyl-phosphonate]: the cardiac allograft survival in series [1] is 14 day. Regarding `CC(C)[C@H](N)C(=O)N1CCC[C@H]1B(O)O` [Val-Boro-Pro], the effect on hematopoiesis result in the series on hematopoiesis was “stimulated hematopoiesis”. Turning to diprotin A, the “degradation of GRF to GRF[3-44] in plasma” value in series [2] was “prevented”.
